These are literature values, as cited in patent US20090131263A1, “Normalization methods for G-protein coupled receptor membrane array” (priority 2007, published 2009).

By Kd is commonly meant the equilibrium constant for the complex coming apart.

In one data set the target is Go (Homo sapiens, UniProt P09471). The note with it: unactivated form of G protein Go, reconstituted vesicle systems.
The next data set addresses Gs (Homo sapiens, UniProt P63092). The settings on record: unactivated form of G protein Gs, reconstituted vesicle systems.
Another data set concerns the target Gi1 (Homo sapiens, UniProt P63096). The settings on record: unactivated form of G protein Gi1, reconstituted vesicle systems.
The target in the next data set is Gi2 (Homo sapiens, UniProt P04899). The settings on record: unactivated form of G protein Gi2, reconstituted vesicle systems.
Gi2, sequence (P04899 whole entry): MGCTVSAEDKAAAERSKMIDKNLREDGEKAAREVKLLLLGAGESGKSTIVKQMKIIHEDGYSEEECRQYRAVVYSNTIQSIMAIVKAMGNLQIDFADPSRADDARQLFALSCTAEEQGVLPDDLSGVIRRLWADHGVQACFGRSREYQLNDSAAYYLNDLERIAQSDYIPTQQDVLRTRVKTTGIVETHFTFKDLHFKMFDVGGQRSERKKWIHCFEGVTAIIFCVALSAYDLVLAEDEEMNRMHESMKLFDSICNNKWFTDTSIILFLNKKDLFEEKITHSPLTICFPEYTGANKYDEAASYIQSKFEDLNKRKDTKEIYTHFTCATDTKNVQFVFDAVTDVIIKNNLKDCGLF

Gi1, sequence (P63096 whole entry): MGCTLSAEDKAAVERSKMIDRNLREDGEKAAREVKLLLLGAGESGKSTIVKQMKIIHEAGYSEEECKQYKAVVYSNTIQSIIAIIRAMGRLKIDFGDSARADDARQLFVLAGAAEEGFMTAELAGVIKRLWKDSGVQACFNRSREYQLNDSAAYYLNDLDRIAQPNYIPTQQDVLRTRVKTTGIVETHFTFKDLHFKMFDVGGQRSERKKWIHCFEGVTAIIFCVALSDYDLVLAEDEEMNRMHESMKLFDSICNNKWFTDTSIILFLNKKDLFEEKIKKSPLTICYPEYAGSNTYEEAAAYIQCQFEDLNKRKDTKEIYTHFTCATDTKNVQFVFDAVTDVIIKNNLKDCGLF
Go, sequence (P09471 whole entry): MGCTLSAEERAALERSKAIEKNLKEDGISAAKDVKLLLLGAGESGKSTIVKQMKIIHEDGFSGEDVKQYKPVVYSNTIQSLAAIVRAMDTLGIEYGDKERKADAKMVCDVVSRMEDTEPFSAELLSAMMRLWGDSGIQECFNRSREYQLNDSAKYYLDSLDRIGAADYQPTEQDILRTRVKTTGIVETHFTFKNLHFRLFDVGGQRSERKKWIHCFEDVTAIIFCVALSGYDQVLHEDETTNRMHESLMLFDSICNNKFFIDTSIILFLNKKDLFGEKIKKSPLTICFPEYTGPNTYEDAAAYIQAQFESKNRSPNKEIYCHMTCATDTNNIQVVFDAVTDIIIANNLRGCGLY
Gs, sequence (P63092 whole entry): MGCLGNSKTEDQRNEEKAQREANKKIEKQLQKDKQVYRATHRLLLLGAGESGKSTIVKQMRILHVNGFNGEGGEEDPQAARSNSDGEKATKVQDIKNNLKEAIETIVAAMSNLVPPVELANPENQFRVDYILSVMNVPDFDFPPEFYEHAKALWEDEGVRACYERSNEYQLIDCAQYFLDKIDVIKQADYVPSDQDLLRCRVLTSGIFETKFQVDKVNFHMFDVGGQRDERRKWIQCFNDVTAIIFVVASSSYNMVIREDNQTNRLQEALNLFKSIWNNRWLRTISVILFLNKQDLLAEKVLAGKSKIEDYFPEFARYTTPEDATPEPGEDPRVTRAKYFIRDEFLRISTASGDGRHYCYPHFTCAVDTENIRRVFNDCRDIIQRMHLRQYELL

With BODIPY-FL-GTPγS, the Kd on Go was 6 nM; on Gs it was 70 nM; at Gi1, 150 nM; at Gi2, 300 nM.
